From US20260174778A1, “SULFONAMIDE COMPOUND, AND PREPARATION METHOD THEREFOR AND USE THEREOF” (SHANGHAI HENLIUS BIOTECH, INC., priority 2023, published 2026) come the findings set out here.

In the data set the test system is human breast cancer ZR-75-1 cell xenograft tumor. As to the kind of experiment: Anti-tumor effect in ER+KAT6high breast cancer cell xenograft tumor model (Test Example 5). The format is in vivo, Balb/c nude mice. The following applies: for T/C / TGI / mean tumor volume: day 35; for body weight changes compared to the PF-8144 group: all doses (0.01, 0.1, 2 mg/kg). How it is done: Test Example 5: Anti-Tumor Effects of Test Compounds in ER^+KAT6^high Breast Cancer Cell-Xenograft Tumor Model
Assay method: ZR-75-1 cells were subcutaneously inoculated into the right back of each mouse to evaluate the efficacy of the compounds in the subcutaneous xenograft tumor model of ZR-75-1 cells.
• 1. Cell culture: ZR-75-1 cells were cultured as a monolayer in vitro under the following culture conditions: an RPMI 1640 medium supplemented with 10% fetal bovine serum and 1% Anti-anti (Antibiotic-Antimycotic), incubated in an incubator at 37° C. with 5% CO2. The cells were digested with trypsin-EDTA twice a week for passaging as per conventional practice. When the cell saturation reached 80%-90% and the quantity met the requirement, the cells were harvested, counted, and inoculated. • 2. Animals: Balb/c nude mice, female, 6-8 weeks old, weighing 18-22 g. A total of 128 mice were required (80 mice were enrolled). They were provided by Vital River. • 3. Tumor inoculation: Two days before tumor inoculation, 17-beta estradiol tablets (0.18 mg) were subcutaneously administered, and 10 million ZR-75-1 tumor cells+matrigel (total […]) were subcutaneously inoculated into the right back of each mouse. When the mean tumor volume reached about 137 mm^3, the mice were grouped for administration. • 4. Experimental administration: The compounds were dissolved in 5% DMSO+5% Tween 80+90% Saline, and administered intragastrically (PO) daily for five weeks. • 5. Experimental indicators: The experimental indicators were to investigate whether the tumor growth was inhibited or delayed or the tumor was cured. Tumor diameters were measured twice weekly using a vernier caliper. The tumor volume was calculated using the following formula: V=0.5a×b^2, where a and b represent the long diameter and short diameter of the tumor, respectively. • 6. The anti-tumor efficacy of the compounds was evaluated by TGI (%) or relative tumor proliferation rate T/C (%). TGI (%) refers to the tumor growth inhibition rate. Calculation of TGI (%):TGI (%)=[(1−(mean tumor volume at the end of administration in a treatment group—mean tumor volume at the start of administration in the treatment group))/(mean tumor volume at the end of treatment in the solvent control group—mean tumor volume at the start of treatment in the solvent control group)]×100%. The calculation formula for the relative tumor proliferation rate T/C (%) was as follows: T/C %=TRTV/CRTV×100% (TRTV:RTV of the treatment group; CRTV:RTV of the negative control group). The relative tumor volume (RTV) was calculated based on the tumor measurement results using the following formula: RTV=Vt/V0, where V0 represents the mean tumor volume measured at the time of grouping for administration (i.e., PG-D0), and Vt represents the mean tumor volume at a certain measurement. TRTV and CRTV were derived from data measured on the same day.
The mean and standard error of mean (SEM) of tumor volume at each time point for each group were included. The differences in tumor volume and tumor weight among the groups were statistically analyzed. For comparisons among three or more groups, one-way ANOVA was used for analysis. […] The analysis was performed using SPSS 17.0, and p<0.05 was considered to indicate a significant difference.
For comparisons between different doses of the same drug or different drugs at the same dose, two-way ANOVA was used for analysis, and the Bonferroni method was applied for testing. The analysis was performed using GraphPad Prism 9.0, and p<0.05 was considered to indicate a significant difference. On day 35 after the start of administration, the data between different doses of the same drug or different drugs at the same dose were analyzed using one-way ANOVA. […] The analysis was performed using SPSS 17.0, and p<0.05 was considered to indicate a significant difference.

One may read the T/C as the result in the treated group divided by that in the control group, in per cent. For the molecule `COc1ccc2c(c1S(=O)(=O)Nc1noc3cc(Cn4cccn4)c(F)c(OC)c13)OCC=C2` [Compound 101, N-(6-((1H-Pyrazol-1-yl)methyl)-5-fluoro-4-methoxybenzo[d]isoxazol-3-yl)-7-methoxy-2H-chromene-8-sulfonamide], the “body weight changes compared to the PF-8144 group” value is reported as “no statistically significant difference”. Besides, under “0.01 mg/kg PO QD”, the T/C stood at 19.06%, the TGI is given as 89.81% and the mean tumor volume stood at 264 mm^3. Besides, under “0.1 mg/kg PO QD”, the “efficacy compared to PF-8144” value is recorded as “significantly superior in efficacy to PF-8144”, the T/C is reported as 1.79%, the TGI was found to be 108.64% and the mean tumor volume was determined as 25 mm^3. Also, where the note is “2 mg/kg PO QD”, the T/C is listed as 0.96%, the TGI worked out at 109.56% and the mean tumor volume is on record as 14 mm^3.

Take `COc1ccccc1S(=O)(=O)Nc1noc2cc(Cn3cccn3)cc(OC)c12` [PF-8144, reference compound]: the T/C is 72.71% (0.01 mg/kg PO QD), 40.77% (0.1 mg/kg PO QD) and 2.51% (2 mg/kg PO QD). Moreover, the TGI by setting is: (0.01 mg/kg PO QD) 30.19%; (0.1 mg/kg PO QD) 65.53%; (2 mg/kg PO QD) 107.85%. Also, the mean tumor volume by setting is: (0.01 mg/kg PO QD) 1,035 mm^3; (0.1 mg/kg PO QD) 580 mm^3; (2 mg/kg PO QD) 36 mm^3.

For `COc1ccc2c(c1S(=O)(=O)Nc1noc3cc(Cn4cccn4)c(F)c(OC)c13)OCCO2` [Compound 28, N-(6-((1H-Pyrazol-1-yl)methyl)-5-fluoro-4-methoxybenzo[d]isoxazol-3-yl)-6-methoxy-2,3-dihydrobenzo[b][1,4]dioxine-5-sulfonamide], the “body weight changes compared to the PF-8144 group” value was “no statistically significant difference”. Under “0.01 mg/kg PO QD”, the T/C was determined as 76.14%, the TGI stood at 30.94% and the mean tumor volume is listed as 1,017 mm^3. For the setting “0.1 mg/kg PO QD”, the “efficacy compared to PF-8144” value is given as “significantly superior in efficacy to PF-8144”, the T/C was determined as 11.36%, the TGI was 98.07% and the mean tumor volume is reported as 162 mm^3. Where the note is “2 mg/kg PO QD”, the T/C is on record as 0.84%, the TGI was found to be 109.69% and the mean tumor volume stood at 12 mm^3.
